From the supplement of paper PMC10307832

Experiments:
Experiment in all cases: relative viability (nuclei count vs DMSO), 5 days (fraction); higher = more cells survive
Midostaurin + Vorinostat = compound: CO[C@@H]1[C@H](N(C)C(=O)c2ccccc2)C[C@H]2O[C@]1(C)n1c3ccccc3c3c4c(c5c6ccccc6n2c5c31)C(=O)NC4 [Midostaurin] + O=C(CCCCCCC(=O)Nc1ccccc1)NO [Vorinostat] (partner 1 µM)
In short: (§1)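 Lung cancer cell lines in 1536-well plates were dosed by pin tool the day after seeding, either with one drug alone or with a fixed anchor-drug dose plus five library-drug doses (not always all listed) in √10 steps. After 5 days, cells were fixed and their nuclei stained in one step (final 0.05% Triton X-100, 1% formaldehyde, 1 ug/ml Hoechst), then counted on 4× images. Relative viability is the nuclei count in treated wells divided by that in vehicle wells. Values are medians of duplicate plates.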

Midostaurin + Luminespib = compound: CO[C@@H]1[C@H](N(C)C(=O)c2ccccc2)C[C@H]2O[C@]1(C)n1c3ccccc3c3c4c(c5c6ccccc6n2c5c31)C(=O)NC4 [Midostaurin] + CCNC(=O)c1noc(-c2cc(C(C)C)c(O)cc2O)c1-c1ccc(CN2CCOCC2)cc1 [Luminespib] (partner 0.01 µM)
In short: as §1

Midostaurin + AZD7762 = compound: CO[C@@H]1[C@H](N(C)C(=O)c2ccccc2)C[C@H]2O[C@]1(C)n1c3ccccc3c3c4c(c5c6ccccc6n2c5c31)C(=O)NC4 [Midostaurin] + NC(=O)Nc1cc(-c2cccc(F)c2)sc1C(=O)N[C@H]1CCCNC1 [AZD7762] (partner 0.2 µM)
In short: as §1

Midostaurin + Bortezomib = compound: CO[C@@H]1[C@H](N(C)C(=O)c2ccccc2)C[C@H]2O[C@]1(C)n1c3ccccc3c3c4c(c5c6ccccc6n2c5c31)C(=O)NC4 [Midostaurin] + CC(C)C[C@H](NC(=O)[C@H](Cc1ccccc1)NC(=O)c1cnccn1)B(O)O [Bortezomib] (partner 0.002 µM)
In short: as §1

[1] = compound: COc1cc(-c2nn([C@H]3CC[C@H](N4CCN(C(C)=O)CC4)CC3)c3ncnc(N)c23)ccc1NC(=O)c1cc2ccccc2n1C + NC(=O)Nc1cc(-c2cccc(F)c2)sc1C(=O)N[C@H]1CCCNC1 [AZD7762] (partner 0.2 µM)
In short: as §1

Cell Line	relative viability (Midostaurin + Vorinostat; first compound 0.01 µM)	relative viability (Midostaurin + Vorinostat; first compound 0.03162 µM)	relative viability (Midostaurin + Vorinostat; first compound 0.1 µM)	relative viability (Midostaurin + Vorinostat; first compound 0.3162 µM)	relative viability (Midostaurin + Luminespib; first compound 0.01 µM)	relative viability (Midostaurin + Luminespib; first compound 0.03162 µM)	relative viability (Midostaurin + Luminespib; first compound 0.1 µM)	relative viability (Midostaurin + Luminespib; first compound 0.3162 µM)	relative viability (Midostaurin + AZD7762; first compound 0.01 µM)	relative viability (Midostaurin + AZD7762; first compound 0.03162 µM)	relative viability (Midostaurin + AZD7762; first compound 0.1 µM)	relative viability (Midostaurin + AZD7762; first compound 0.3162 µM)	relative viability (Midostaurin + Bortezomib; first compound 0.01 µM)	relative viability (Midostaurin + Bortezomib; first compound 0.03162 µM)	relative viability (Midostaurin + Bortezomib; first compound 0.1 µM)	relative viability (Midostaurin + Bortezomib; first compound 0.3162 µM)	relative viability ([1]; first compound 0.0128 µM)	relative viability ([1]; first compound 0.04048 µM)	relative viability ([1]; first compound 0.128 µM)	relative viability ([1]; first compound 1.28 µM)
NCI-H1437	0.869	0.833	0.818	0.654	1.02	1	1.03	1.1	1.14	1.1	1.06	1.11	0.556	0.499	0.478	0.545	1.14	1.15	1.04	0.96
ABC-1	1.23	1.37	1.08	0.996	–	0.571	0.641	0.591	0.844	0.824	0.729	–	0.316	0.289	0.285	0.292	0.658	0.759	0.697	0.728
NCI-H838	0.72	0.705	0.606	0.262	0.32	0.362	0.322	0.299	0.843	0.892	0.848	0.865	0.886	0.91	0.638	0.448	1	0.921	0.91	0.75
A-427	0.883	0.887	0.848	0.937	0.869	0.905	0.753	0.953	0.742	0.727	0.871	0.723	0.961	0.939	0.992	0.899	0.76	0.641	0.782	0.727
LCLC-97TM1	0.668	0.534	0.635	0.756	0.836	0.713	0.749	0.763	0.169	0.287	0.223	0.275	0.475	–	0.419	0.595	0.377	0.165	0.283	0.194
LCLC-103H	0.824	0.717	0.806	0.792	0.906	0.875	0.847	0.674	0.789	0.782	0.682	0.787	1.07	0.924	1.02	1.1	0.828	0.787	0.759	0.703
PC-3 [JPC-3]	0.776	0.788	0.68	1.07	0.736	0.658	0.667	0.692	0.737	0.892	0.759	0.869	0.891	0.734	0.683	0.85	0.654	0.877	0.834	0.76
BEN	0.594	0.552	0.707	0.598	0.541	1.23	0.396	0.457	0.743	0.659	0.722	0.726	0.797	0.841	0.909	1.09	0.532	0.729	0.591	0.671
NCI-H1666	1.12	0.985	1.02	0.999	0.966	0.927	0.897	0.864	0.881	0.804	0.911	0.778	0.852	0.894	0.882	0.888	0.821	0.841	0.802	0.741
LC-2-ad	0.692	0.644	0.775	0.459	0.953	0.955	0.925	0.996	0.873	0.878	0.843	0.724	1.03	0.979	0.995	1	0.86	0.846	0.789	0.646
ChaGo-K-1	0.746	0.811	0.619	0.714	0.619	0.627	0.525	0.626	0.895	0.837	0.677	0.946	0.985	1.28	0.759	1.12	0.829	0.779	0.818	0.72
NCI-H1975	0.695	0.706	0.574	0.416	0.226	0.19	0.123	0.223	0.818	0.756	0.673	0.654	0.325	0.513	0.446	0.322	0.761	0.731	0.632	0.429
NCI-H1993	0.83	0.782	0.87	0.38	0.807	0.821	0.866	0.856	0.762	0.77	0.699	0.5	1.03	1.15	1.08	1.11	0.823	0.549	0.715	0.752
RERF-LC-KJ	0.715	0.709	0.67	0.646	1.29	1.49	1.14	1.17	0.994	0.96	1.05	1.03	1.16	1.18	1.16	1.23	0.911	0.949	0.981	0.749
NCI-H23	0.514	0.68	0.54	0.243	0.263	0.251	0.227	0.197	0.215	0.265	0.281	0.14	1.03	0.999	0.923	1.06	0.268	0.199	0.261	0.199
